Experimental data as given in ChEMBL document CHEMBL3045269, “Anti-leukemic activity of sulfonoquinovosyldiacylglyceride (SQDG): a constituent of Azadirachta indica leaves” (Med Chem Res, 2013).

Columns and labels:
Assay type in all cases: functional
U-937 [1] = assay: Cytotoxicity against Homo sapiens (human) U937 cells assessed as growth inhibition at 2 ug/ml after 24 hr by MTT assay relative to untreated control; settings: U-937, 24 h, read-out: GI
K562 [2] = assay: Cytotoxicity against Homo sapiens (human) K562 cells assessed as growth inhibition at 2 ug/ml after 48 hr by MTT assay relative to untreated control; settings: K562, 48 h, read-out: GI
K562 [3] = assay: Cytotoxicity against Homo sapiens (human) K562 cells assessed as growth inhibition at 2 ug/ml after 24 hr by MTT assay relative to untreated control; settings: K562, 24 h, read-out: GI
U-937 [4] = assay: Cytotoxicity against Homo sapiens (human) U937 cells assessed as growth inhibition at 2 ug/ml after 48 hr by MTT assay relative to untreated control; settings: U-937, 48 h, read-out: GI

With `Nc1ccn([C@@H]2O[C@H](CO)[C@@H](O)[C@@H]2O)c(=O)n1` [CYTARABINE] the inhibition of growth at 2 µg/mL (U-937 [1]) was 59.9%, the inhibition of growth at 2 µg/mL (K562 [2]) was 65.1% and the inhibition of growth at 2 µg/mL (K562 [3]) was 39.9%. The inhibition of growth at 2 µg/mL (U-937 [4]) was 85.1%.
